Data on 19 molecules can be found in patent US8299265B2, “Amine derivatives having NPY Y5 receptor antagonistic activity and the uses thereof” (Shionogi & Co., Ltd., priority 2007, dated 2012).

Each structure is given as a SMILES string.

Data set [1] deals with T1, P-gp (Mus musculus, UniProt P21447).
T1 construct: from tissue; host or cells: living mice (Jcl; C57BL/6J, male, 7 weeks), brain / blood-brain barrier
The experiment in a line: Potential for drug-drug interactions through P-gp in vivo (Kp with or without cyclosporin A). Particulars: mice, Kp with versus without cyclosporin A (20 mg/kg). Here is the method: Transportability of the compounds of this invention through the blood-brain barrier (blood-brain partition coefficient; Kp) in mice (Jcl; C57BL/6J mice, ♂, 7 weeks) was defined from the difference in concentration of the compounds between in plasma and in brain after intravenous administration of the compounds (0.5 mg/2 mL/kg). The brain Kp value of Compound (I-72) (Kp Cont.) was 1.29 showing high transportability through the blood-brain barrier.
To examine the potential for drug-drug interactions through P-gp in vivo, the Kp values of compounds of this invention with (KpCSA) or without (KpCont.) cyclosporin A (20 mg/kg), a P-gp inhibitor, were calculated. The KpCSA value of Compound (I-72) was 1.14, and the calculated KpCSA KpCont. ratio was 0.9.
On the other hand the potential for drug-drug interactions through P-pg of amide compound B which has similar structure of Compound (I-72) was also examined in mice. The KpCont. and KpCSA were 0.04 and 0.84, respectively.

The target in data set [2] is T2, mouse NPY Y5 receptor (Mus musculus, UniProt O70342).
T2 construct: expressed in transfected cells; membranes used
T2 sequence (O70342 1-466): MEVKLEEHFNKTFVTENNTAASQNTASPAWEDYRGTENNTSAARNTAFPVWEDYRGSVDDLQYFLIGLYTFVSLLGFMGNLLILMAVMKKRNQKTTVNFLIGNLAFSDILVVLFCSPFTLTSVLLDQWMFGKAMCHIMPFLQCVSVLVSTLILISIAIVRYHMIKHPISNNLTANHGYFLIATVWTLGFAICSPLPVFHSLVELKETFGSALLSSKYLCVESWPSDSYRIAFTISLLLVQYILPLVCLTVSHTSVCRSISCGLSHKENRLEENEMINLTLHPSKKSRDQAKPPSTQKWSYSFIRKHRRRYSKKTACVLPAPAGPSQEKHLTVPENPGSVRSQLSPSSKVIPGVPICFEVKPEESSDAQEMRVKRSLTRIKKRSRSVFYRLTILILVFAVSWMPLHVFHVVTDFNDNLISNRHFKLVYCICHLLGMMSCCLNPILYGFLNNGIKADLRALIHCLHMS
The experiment in a line: Affinity for mouse NPY Y5 receptor ([125I] peptide YY binding, CHO cell membranes). The conditions noted are these: membranes of CHO cells expressing mouse NPY Y5 receptor. The text has this: cDNA sequence encoding a mouse NPY Y5 receptor (Biochim. Biophys. Acta 1328, 83-89, 1997) was cloned in a vector (pME18S, Takebe et al. Mol. Cell. Biol. 8, 466-472). The obtained expression vector was transfected into CHO cells as a host by using Lipofect AMINE reagent (Trademark, Gico BRL Co., Ltd.) according to the instruction manual. The cells that stably express NPY Y5 receptor were obtained.
The membranes prepared from the CHO cells expressing NPY Y5 receptor, the compound of this invention and 30,000 cpm [^125I] peptide YY (60 pM of final concentration: Amersham) were incubated in the assay buffer (20 mM HEPES-Hanks buffer containing 0.1% bovine serum albumin, pH 7.4) at 25° C. for 2 hours, and then the membrane was filtered from the mixture through a glassfilter (GF/C) presoaked with 1% polyethyleneimine. After washing with 50 mM Tris-HCl buffer (pH 7.4), radioactivity retained on the filters was quantified with a gamma counter.
Nonspecific binding was defined as the amount of radioactivity bound to the membranes after incubation in the presence of 200 nM of peptide YY. The 50% inhibitory concentration of the test compound against the specific peptide YY binding (IC50 value) was calculated (Inui, A. et al. Endocrinology 131, 2090-2096 (1992)).

Data set [3] relates to male C57BL/6J mice. The experiment in a line: Inhibition of Y5 agonist-induced food intake in mice. It counts as in vivo. The conditions noted are these: Mus musculus, 4 hours after dosing, read-out: Inhibition ratio of Y5 agonist-induced food intake; for inhibition in vivo at 6 mg/kg: unmarked cells. On the procedure:
Under diethylether anesthesia the skull of male C57BL/6J mice (12-14 week old, 25-30 g) was exposed by making an incision about 1-cm long from external occipital crest to nasal dorsum, and then drilled in the 1-mm lateral position to the left following 1-mm posterior from bregma. After recovery from anesthesia mice were dosed with either 0.5% hydroxypropylmethyl cellulose solution (vehicle, Shin-Etsu Chemical Co., Ltd) or the compounds of this invention suspended in the 0.5% hydroxypropylmethyl cellulose solution. At one hour after the treatment, each animal received saline or a NPY Y5 receptor specific agonist, [cPP^1-7, NPY^19-23, Ala^31, Aib^32, Gln^34]-hPancreatic Polypeptide (0.1 nmol/1.5 μL saline/mouse) through the skull opening using a canula. Residual food was measured at 2 and 4 hours after the treatment.

Data set [4] concerns high-fat diet-induced obese mice. The experiment in a line: Suppression of body weight gain in high-fat diet-induced obese mice. It is filed as in vivo. Particulars: 6 mg/kg b.i.d. for 3 weeks, compared to vehicle. Here is the method: Prior to administration of the compounds of this invention, male C57BL/6J mice were given a high-fat diet to induce obese. The high-fat diet-induced obese mice (13-14 week old, body weight 28-33 g) were dosed with 0.5% hydroxypropylmethyl cellulose solution (vehicle, Shin-Etsu Chemical Co., Ltd) or the compounds of this invention suspended in the 0.5% hydroxypropylmethyl cellulose solution twice a day (b.i.d.) for 3 weeks with the same diet. The changes in body weight were monitored daily.

T1 sequence (P21447 whole entry): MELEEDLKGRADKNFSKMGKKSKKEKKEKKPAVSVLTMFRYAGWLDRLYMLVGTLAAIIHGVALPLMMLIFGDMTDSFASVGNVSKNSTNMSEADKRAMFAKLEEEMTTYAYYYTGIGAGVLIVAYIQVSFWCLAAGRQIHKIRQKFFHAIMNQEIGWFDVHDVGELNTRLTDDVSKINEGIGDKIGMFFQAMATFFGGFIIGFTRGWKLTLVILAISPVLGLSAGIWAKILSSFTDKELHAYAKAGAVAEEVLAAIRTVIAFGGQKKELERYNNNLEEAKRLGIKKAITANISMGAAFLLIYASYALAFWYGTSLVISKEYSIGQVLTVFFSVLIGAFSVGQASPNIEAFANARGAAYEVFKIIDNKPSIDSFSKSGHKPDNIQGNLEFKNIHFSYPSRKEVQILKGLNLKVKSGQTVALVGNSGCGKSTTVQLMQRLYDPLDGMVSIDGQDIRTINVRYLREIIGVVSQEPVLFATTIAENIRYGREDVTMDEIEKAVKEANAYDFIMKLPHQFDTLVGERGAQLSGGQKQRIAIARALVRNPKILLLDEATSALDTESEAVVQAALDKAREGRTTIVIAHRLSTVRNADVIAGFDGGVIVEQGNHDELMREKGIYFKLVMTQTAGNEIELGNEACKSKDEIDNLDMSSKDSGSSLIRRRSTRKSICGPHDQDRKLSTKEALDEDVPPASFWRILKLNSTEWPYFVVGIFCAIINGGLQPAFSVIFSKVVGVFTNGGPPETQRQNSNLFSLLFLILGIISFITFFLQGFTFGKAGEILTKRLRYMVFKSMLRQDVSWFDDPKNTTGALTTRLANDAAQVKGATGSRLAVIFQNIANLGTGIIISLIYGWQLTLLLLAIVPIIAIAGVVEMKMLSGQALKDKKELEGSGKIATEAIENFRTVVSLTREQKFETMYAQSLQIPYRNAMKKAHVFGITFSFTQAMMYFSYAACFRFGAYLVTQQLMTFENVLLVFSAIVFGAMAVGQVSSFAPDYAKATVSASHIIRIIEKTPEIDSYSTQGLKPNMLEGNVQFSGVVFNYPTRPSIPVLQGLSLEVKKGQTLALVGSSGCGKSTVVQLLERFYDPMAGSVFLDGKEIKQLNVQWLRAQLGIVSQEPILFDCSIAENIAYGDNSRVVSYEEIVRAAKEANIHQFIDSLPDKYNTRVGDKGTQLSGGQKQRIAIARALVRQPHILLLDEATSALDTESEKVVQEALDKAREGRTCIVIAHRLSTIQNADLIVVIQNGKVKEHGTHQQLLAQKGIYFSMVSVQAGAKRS

Regarding `C[C@@H]1CN(c2ccc(NC[C@H]3CC[C@H](NS(=O)(=O)C(C)(C)C)CC3)cc2)C[C@H](C)O1` [Compound I-72], in data set [1], the KpCSA/KpCont. ratio amounted to 0.9.

Regarding `CCS(=O)(=O)N[C@H]1CC[C@H](CNc2cc(-c3ccccc3)on2)CC1` [Ii-44], in data set [2], the half-inhibitory concentration (IC50) was found to be 3.4 nM.

As for `Cn1c(=O)oc2cc(NC[C@H]3CC[C@H](NS(=O)(=O)C(C)(C)C)CC3)cc(F)c21` [Ii-45], the inhibition in vivo at 6 mg/kg in data set [3] stood at 76.2%. Also, in data set [4], the Body weight gain entry was “suppresses Body Weight Gain”.

Take `CC(C)S(=O)(=O)N[C@H]1CC[C@H](CNc2cc(F)cc(N3CCOCC3)c2)CC1` [Ii-55]: in data set [3], the inhibition in vivo at 6 mg/kg worked out at 64.3%.

With `CCS(=O)(=O)NC[C@H]1CC[C@H](Nc2ccc(-c3ccccc3)cn2)CC1` [Ij-4], in data set [3], the inhibition in vivo at 6 mg/kg is 88.2%.

As for `CC(C)(C)S(=O)(=O)NC[C@H]1CC[C@H](Nc2ccn(-c3ccccc3F)n2)CC1` [Ij-110], in data set [3], the inhibition in vivo at 6 mg/kg is 90.3%.

With `CCS(=O)(=O)NC[C@H]1CC[C@H](Nc2ccn(-c3ccccc3F)n2)CC1` [Ij-112], in data set [4], the Body weight gain entry was “suppresses Body Weight Gain”.

Turning to `CCS(=O)(=O)NC[C@H]1CC[C@H](Nc2nc3ccccc3o2)CC1` [Ij-150], the melting point lay within 170 to 171 °C. Moreover, in data set [3], the inhibition in vivo at 6 mg/kg was 25.3%.

Molecule `CC(C)S(=O)(=O)NC[C@H]1CC[C@H](Nc2nc3cc(F)ccc3s2)CC1` [Ij-151] showed a melting point of 165 to 166 °C. For the same molecule, in data set [3], the inhibition in vivo at 1.5 mg/kg came out at 78.4%.

`CC(C)S(=O)(=O)NC[C@H]1CC[C@H](Nc2nc3ccc(F)cc3s2)CC1` [Ij-152]: the melting point fell in the range of 151 to 152 °C. Moreover, the inhibition in vivo at 1.5 mg/kg in data set [3] worked out at 62.6%.

`CC(C)S(=O)(=O)NC[C@H]1CC[C@H](Nc2nc3cccc(F)c3s2)CC1` [Ij-153]: the inhibition in vivo at 6 mg/kg in data set [3] was 73%.

Regarding `CC(C)S(=O)(=O)NC[C@H]1CC[C@H](Nc2nc3cc(Cl)ccc3s2)CC1` [Ij-154], the melting point lay within 166 to 167 °C. Also, in data set [3], the inhibition in vivo at 6 mg/kg was 81.3%.

On to `CC(C)S(=O)(=O)NC[C@H]1CC[C@H](Nc2nc3cc(F)ccc3o2)CC1` [Ij-155], for which the inhibition in vivo at 1.5 mg/kg in data set [3] is 56.1%.

`CC(C)S(=O)(=O)NC[C@H]1CC[C@H](Nc2nc3ccc(F)cc3o2)CC1` [Ij-156] had a melting point of 170 to 171 °C. In data set [3] (**Dose: 12.5 mg/kg), the inhibition in vivo at 12.5 mg/kg was found to be 90.4%.

With `CC(C)(C)S(=O)(=O)NC[C@H]1CC[C@H](Nc2nc3cc(F)ccc3o2)CC1` [Ij-158], the melting point was 220 to 221 °C. The inhibition in vivo at 6 mg/kg in data set [3] came out at 70.5%.

Regarding `CC(C)(C)S(=O)(=O)NC[C@H]1CC[C@H](Nc2nc3ccc(F)cc3o2)CC1` [Ij-159], the inhibition in vivo at 6 mg/kg in data set [3] turned out to be 83.2%.

As to `CCC(C)S(=O)(=O)NC[C@H]1CC[C@H](Nc2nc3cc(F)ccc3o2)CC1` (stereo partly drawn) [Ij-160], the inhibition in vivo at 1.5 mg/kg in data set [3] is 36.6%.

Consider `CCC(C)S(=O)(=O)NC[C@H]1CC[C@H](Nc2nc3ccc(F)cc3o2)CC1` (stereo partly drawn) [Ij-161], for which the melting point was in the range of 173 to 174 °C. Moreover, the inhibition in vivo at 1.5 mg/kg in data set [3] stood at 15.8%.

Take `C[C@@H]1CN(c2ccc(NC(=O)[C@H]3CC[C@H](NS(=O)(=O)C(C)(C)C)CC3)cc2)C[C@H](C)O1` [amide compound B, reference compound]: the KpCSA/KpCont. ratio in data set [1] stood at 20.5.

As usually defined, the IC50 is the point on the concentration scale where inhibition reaches its midpoint. A high value points to lower potency. A word on the melting point: it is the temperature of the solid-liquid transition.
